Measurements from US20040077591A1, “Histone deacetylase inhibitors for the treatment of multiple sclerosis, amyotrophic lateral sclerosis and Alzheimer's Disease” (The Brigham and Women's Hospital, Inc., priority 2002, published 2004).

How the values were obtained:
mouse model = settings: cited from earlier work
CNS tissue from EAE mice = assay: Quantitative RT-PCR on CNS tissue of EAE mice; format: in vivo
Description: FIG. 8—Identification of gene expression changes induced by HDAC inhibitors in vivo, using reverse transcriptase polymerase chain reaction (RT-PCR). CNS and spleen tissue samples from EAE mice were used to isolate RNA. One step real time quantitative RT-PCR (QRT-PCR) was then performed in triplicate for each sample (n=3 per group of mice) with SYBR Green and an ABI Prism 7700 Sequence Detection System (PE Applied Biosystems, Foster City, Calif.).
d) Quantitative RT-PCR (QRT-PCR) on CNS and spleen tissues from TSA-treated EAE mice detects numerous genes modulated by this HDAC inhibitor. […] QRT-PCR unveiled new CNS effects of TSA (FIG. 8), including upregulation of the neuronal trait genes sodium channel Nav1.2 and dopamine β hydroxylase (Dbh), and downregulation of the pro-apoptotic factors caspase 2 (casp2) and apoptosis inducing factor (Aif). In spleen tissues, QRT-PCR confirmed elevation of Ifna7 and Adipsin and downregulation of Igκ V22 mRNAs, and unveiled downregulation by TSA of multiple inflammatory factors, such as IL-8 receptor, IL-2 receptor, IL-12, and the costimulatory molecule CD28, from pathways implicated in MS (Glabinsk and Ransohoff, 2001; Dangond, 2002).

EAE mice spleens = assay: DNA microarray analysis of EAE mice spleens; format: in vivo
Text: (2) Modulation of genes involved in neuroprotection and immune regulation by TSA. a) Microarrays detect protective genes regulated by TSA in EAE mice spinal cords. The inventor pooled RNA from tissues of three animals in each group (TSA treated and vehicle-treated) for DNA microarray analysis. As shown (Table 3), intraperitoneal TSA led to the enhanced expression of mRNAs for the antioxidant glutathione peroxidase (Gpx1) and the neuroprotective insulin-like growth factor 2 (Igf2). […] Intraperitoneal TSA also led to decreased expression in EAE spinal cords of the chemokine receptor CCR6, immunoglobulin V(H)II, the vascular homeostasis-related phospholipase A2, and upregulation of the immunomodulatory factor interferon-α2 (Ifna2), the latter with known beneficial effects in MS patients.
b) Microarrays detect protective genes regulated by TSA in EAE mice spleens. The inventor had previously shown that HDAC mRNAs are elevated in immune cells after stimulation with mitogens or α-CD3 Ab (Dangond et al., 1998) and that HDAC inhibitors block proliferation (Dangond and Gullans, 1998). HDAC inhibition also downregulates pro-inflammatory molecules, including γ-IFN (Dangond and Gullans, 1998), IL-12 (Saemann et al., 2000), IL-12 receptor (Saemann et al., 2000), B7-1 (Bohmig et al., 1997) and TNF-α (Nancey et al., 2002). […] A known histone deacetylase-binding chaperone, 14-3-3 sigma, is also elevated in spleens.
Microarrays detect protective genes co-regulated by TSA in EAE mice spinal cords and spleens.

Question: For `CC(/C=C/C(=O)NO)=C\[C@@H](C)C(=O)c1ccc(N(C)C)cc1` [TSA, Trichostatin A], which immunosuppression (mouse model) is on record?
Answer: The immunosuppression was “induces immunosuppression”.

Question: And the “fold change of key genes altered, QRT-PCR” value (CNS tissue from EAE mice; CNS and spleen samples, vs vehicle-treated EAE animals, n=3 per group)?
Answer: The value was over 1.5 fold.

Question: What about the “Gpx1 mRNA by QRT-PCR” value (CNS tissue from EAE mice; CNS, TSA-treated EAE mice) of the same compound?
Answer: The value was “elevated”.

Question: What about the “Ifna2 mRNA by QRT-PCR” value (CNS tissue from EAE mice; CNS, TSA-treated EAE mice) of the same compound?
Answer: Its value is “elevated”.

Question: And the “Mug mRNA by QRT-PCR” value (CNS tissue from EAE mice; CNS, TSA-treated EAE mice)?
Answer: The value was “downregulated”.

Question: And the “Tmpo mRNA by QRT-PCR” value (CNS tissue from EAE mice; CNS, TSA-treated EAE mice)?
Answer: Its value is “downregulated”.

Question: What about the “apoptosis inducing factor (Aif) mRNA by QRT-PCR” value (CNS tissue from EAE mice; CNS, TSA-treated EAE mice) of the same compound?
Answer: Its value is “downregulation”.

Question: And the “caspase 2 (casp2) mRNA by QRT-PCR” value (CNS tissue from EAE mice; CNS, TSA-treated EAE mice)?
Answer: The value was “downregulation”.

Question: What about the “dopamine β hydroxylase (Dbh) mRNA by QRT-PCR” value (CNS tissue from EAE mice; CNS, TSA-treated EAE mice) of the same compound?
Answer: The value was “upregulation”.

Question: And the “sodium channel Nav1.2 mRNA by QRT-PCR” value (CNS tissue from EAE mice; CNS, TSA-treated EAE mice)?
Answer: Its value is “upregulation”.

Question: And the “thromboxane A2 receptor (Tbxa2r) mRNA by QRT-PCR” value (CNS tissue from EAE mice; CNS, TSA-treated EAE mice)?
Answer: The value was “downregulated”.

Question: And the “Fold Δ Spleen, Paired box gene 4 (Pax4)” value (EAE mice spleens; Table 5, probe set AB010557, i.p. TSA, EAE mice spleen)?
Answer: The value was −2.4 fold.

Question: What about the “Fold Δ Spleen, Axin” value (EAE mice spleens; Table 5, probe set AF009011, i.p. TSA, EAE mice spleen) of the same compound?
Answer: Its value is 2.1 fold.

Question: What about the “Fold Δ Spleen, DNA methyltransferase (Dnmt1)” value (EAE mice spleens; Table 5, probe set AF036008, i.p. TSA, EAE mice spleen) of the same compound?
Answer: Its value is −3.2 fold.

Question: And the “Fold Δ Spleen, Metaxin homolog” value (EAE mice spleens; Table 5, probe set AV108173, i.p. TSA, EAE mice spleen)?
Answer: Its value is −4 fold.

Question: What about the “Fold Δ Spleen, Thromboxane A2 receptor (Tbxa2r)” value (EAE mice spleens; Table 5, probe set D10849, i.p. TSA, EAE mice spleen) of the same compound?
Answer: The value was −4.9 fold.

Question: What about the “Fold Δ Spleen, Growth differentiation factor (Gdf9)” value (EAE mice spleens; Table 5, probe set L06444, i.p. TSA, EAE mice spleen) of the same compound?
Answer: Its value is 5.4 fold.

Question: And the “Fold Δ Spleen, Neurofilament heavy (Nefh)” value (EAE mice spleens; Table 5, probe set M35131, i.p. TSA, EAE mice spleen)?
Answer: Its value is 2.2 fold.

Question: And the “Fold Δ Spleen, Snail homolog 1 (Snail1)” value (EAE mice spleens; Table 5, probe set M95604, i.p. TSA, EAE mice spleen)?
Answer: Its value is 2.9 fold.

Question: What about the “Fold Δ Spleen, Dishevelled 2 (Dvl2)” value (EAE mice spleens; Table 5, probe set U24160, i.p. TSA, EAE mice spleen) of the same compound?
Answer: Its value is −3.6 fold.

Question: What about the “Fold Δ Spleen, Rearranged in lymphoma (Frat1)” value (EAE mice spleens; Table 5, probe set U58974, i.p. TSA, EAE mice spleen) of the same compound?
Answer: The value was 5.4 fold.

Question: And the “Fold Δ Spleen, Immunoglobulin H and L variable” value (EAE mice spleens; Table 5, probe set U62386, i.p. TSA, EAE mice spleen)?
Answer: Its value is −2.5 fold.

Question: What about the “Fold Δ Spleen, Cyclin D-interacting Dmp1 (Dmtf1)” value (EAE mice spleens; Table 5, probe set U70017, i.p. TSA, EAE mice spleen) of the same compound?
Answer: Its value is 5.2 fold.

Question: And the “Fold Δ Spleen, Neuronal PAS domain 1 (Npas1)” value (EAE mice spleens; Table 5, probe set U77967, i.p. TSA, EAE mice spleen)?
Answer: The value was −3.5 fold.

Question: And the “Fold Δ Spleen, Phospholipase C-beta-1b (Picb1)” value (EAE mice spleens; Table 5, probe set U85714, i.p. TSA, EAE mice spleen)?
Answer: Its value is 3.7 fold.

Question: What about the “Fold Δ Spleen, Glutathione peroxidase (Gpx1)” value (EAE mice spleens; Table 5, probe set X03920, i.p. TSA, EAE mice spleen) of the same compound?
Answer: Its value is 2.3 fold.

Question: And the “Fold Δ Spleen, Immunoglobulin kappa chain (1gk-V20)” value (EAE mice spleens; Table 5, probe set X16678, i.p. TSA, EAE mice spleen)?
Answer: The value was −2.3 fold.

Question: What about the “Fold Δ Spleen, Paired box gene 2 (Pax2)” value (EAE mice spleens; Table 5, probe set X55781, i.p. TSA, EAE mice spleen) of the same compound?
Answer: Its value is 2.1 fold.

Question: And the “Fold Δ Spleen, Max binding protein ROX (Mnt)” value (EAE mice spleens; Table 5, probe set Y07609, i.p. TSA, EAE mice spleen)?
Answer: The value was −3.5 fold.

Question: What about the “Fold Change, 14-3-3 sigma” value (EAE mice spleens; probe set 96704, spleen, I.P. TSA vs vehicle-treated EAE mice) of the same compound?
Answer: The value was 3.9 fold.

Question: What about the “Fold Change, Parvalbumin (Pva)” value (EAE mice spleens; probe set 96719, spleen, I.P. TSA vs vehicle-treated EAE mice) of the same compound?
Answer: The value was 6.3 fold.

Question: What about the “Fold Change, IgH variable” value (EAE mice spleens; probe set 96970, spleen, I.P. TSA vs vehicle-treated EAE mice) of the same compound?
Answer: The value was −3.9 fold.

Question: And the “Fold Change, Igκ-V22” value (EAE mice spleens; probe set 97570, spleen, I.P. TSA vs vehicle-treated EAE mice)?
Answer: Its value is −4.4 fold.

Question: What about the “Fold Change, IgA VDJH” value (EAE mice spleens; probe set 99420, spleen, I.P. TSA vs vehicle-treated EAE mice) of the same compound?
Answer: Its value is −2.8 fold.

Question: And the “Fold Change, Adipsin (Adn)” value (EAE mice spleens; probe set 99671, spleen, I.P. TSA vs vehicle-treated EAE mice)?
Answer: Its value is 9.0 fold.

Question: And the “Fold Change, Galanin receptor 1 (Galr1)” value (EAE mice spleens; probe set 99837, spleen, I.P. TSA vs vehicle-treated EAE mice)?
Answer: Its value is −4.2 fold.

Question: And the “Fold Change, IgE H constant” value (EAE mice spleens; probe set 99850, spleen, I.P. TSA vs vehicle-treated EAE mice)?
Answer: The value was −3.1 fold.

Question: And the “Fold Change, Kallikrein (Klk)” value (EAE mice spleens; probe set 100060, spleen, I.P. TSA vs vehicle-treated EAE mice)?
Answer: The value was 2.8 fold.

Question: And the “Fold Change, Lactotransferrin (Ltf)” value (EAE mice spleens; probe set 101115, spleen, I.P. TSA vs vehicle-treated EAE mice)?
Answer: Its value is −8.2 fold.

Question: And the “Fold Change, IgG rearranged κ” value (EAE mice spleens; probe set 101616, spleen, I.P. TSA vs vehicle-treated EAE mice)?
Answer: Its value is −4.5 fold.

Question: What about the “Fold Change, IgG variable” value (EAE mice spleens; probe set 101752, spleen, I.P. TSA vs vehicle-treated EAE mice) of the same compound?
Answer: The value was −8.2 fold.

Question: What about the “Fold Change, V kappa and J kappa coding joint” value (EAE mice spleens; probe set 101826, spleen, I.P. TSA vs vehicle-treated EAE mice) of the same compound?
Answer: Its value is −4.2 fold.

Question: What about the “Fold Change, γ-1 Ig Constant” value (EAE mice spleens; probe set 101870, spleen, I.P. TSA vs vehicle-treated EAE mice) of the same compound?
Answer: The value was −5.0 fold.

Question: What about the “Fold Change, Interferon alpha 7 (Ifna7)” value (EAE mice spleens; probe set 102149, spleen, I.P. TSA vs vehicle-treated EAE mice) of the same compound?
Answer: The value was 5.8 fold.

Question: What about the “Fold Change, IgH gene DJC” value (EAE mice spleens; probe set 102843, spleen, I.P. TSA vs vehicle-treated EAE mice) of the same compound?
Answer: The value was −3.6 fold.

Question: What about the “Fold Change, Snail homolog” value (EAE mice spleens; probe set 103830, spleen, I.P. TSA vs vehicle-treated EAE mice) of the same compound?
Answer: The value was 3.0 fold.
